# Laboratory results taken from US20060167226A1, “Mutations of voltage-gated ion channnels that allow them to express a voltage-independent phenotype and an improved method to use the same” (Cardiome Pharma Corp., priority 2002, published 2006).
# Target: T1, Kv1.5m channels (Homo sapiens, UniProt P22460, P513D/R400Q/R403Q/R409Q)
# T1 construct: The coding region of the human gene for Kv1.5 was subcloned into pYC2 (Invitrogen) as an approximately 2 kb HindIII-NotI fragment; expressed in transfected cells; host or cells: Saccharomyces cerevisiae trk1 trk2 strain WΔ3, plasmid pYC2 (GAL1 promoter) or a PGK promoter vector
# T1 sequence (P22460 whole entry R400Q/R403Q/R409Q/P513D, the tested form may be a part): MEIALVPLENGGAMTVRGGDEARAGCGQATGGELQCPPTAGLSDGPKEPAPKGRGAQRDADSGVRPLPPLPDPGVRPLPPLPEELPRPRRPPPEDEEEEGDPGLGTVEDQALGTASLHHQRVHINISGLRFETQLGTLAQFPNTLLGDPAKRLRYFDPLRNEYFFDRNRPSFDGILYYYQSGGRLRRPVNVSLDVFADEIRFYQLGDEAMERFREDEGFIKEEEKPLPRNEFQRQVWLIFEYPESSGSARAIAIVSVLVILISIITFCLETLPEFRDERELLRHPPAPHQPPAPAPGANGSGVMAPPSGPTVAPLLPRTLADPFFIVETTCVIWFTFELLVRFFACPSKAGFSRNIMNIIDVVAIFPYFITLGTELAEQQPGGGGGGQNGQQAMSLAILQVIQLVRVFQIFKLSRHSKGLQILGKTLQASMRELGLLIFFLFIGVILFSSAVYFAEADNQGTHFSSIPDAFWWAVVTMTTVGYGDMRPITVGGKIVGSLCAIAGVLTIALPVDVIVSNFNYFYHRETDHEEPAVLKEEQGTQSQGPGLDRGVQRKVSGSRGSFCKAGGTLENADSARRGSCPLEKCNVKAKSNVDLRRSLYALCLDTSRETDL
# Assay: Liquid culture growth assay of trk1 trk2 yeast (WΔ3) expressing Kv1.5m in low potassium media
# Assay type: cell-based
# Settings: for OD600 (Batch A) / OD600 (Batch B): QPD WΔ3 transformants, liquid culture; for Block of growth of the trk1 trk2 strain expressing Kv1.5m on low potassium: low potassium media
# From the text: Expression of the cloned inserts is under the control of either the constitutively active PGK promoter or the inducible GAL1 promoter. The latter requires growth in/on media containing galactose as sole carbon source. The screening method involves adding the compound to be screened to the growth media of trk1 trk2 yeast expressing the modified potassium channel and determining whether the yeast's growth is inhibited. The tested compound may be incorporated in liquid or solid growth media or added ectopically to solid growth media.
# Our yeast strain, when expressing the mutant Kv1.5 channel, is capable of consistent growth on as little as 0.5 mM potassium. Very few pseudorevertants are capable of growth at this potassium concentration; the vast majority of liquid cultures of the parent strain show absolutely no growth even after more than 24 hours culture. When expressing the mutant Kv1.5 channel, growth is robust and can be blocked by known Kv1.5 channel blockers.
# Detailed Description of the Methods Required for a Liquid Culture Media Assay of Kv1.5:
# Low salt media was made according to Wickerham, L. J. (1951) (Taxonomy of Yeasts. United States Department of Agriculture Technical Bulletin No. 1029), except that the final potassium phosphate concentration was 0.5 mM.
# 1. Streak out WΔ3 and Kv1.5m transformed WΔ3 (“Kv1.5m”) culture from frozen stock onto YPD+100 mM K+ and YNB+100 mM K+, ura-agar media plates, respectively, for fresh colonies.
# 2. The day before doing the drug assay, use the fresh colonies to grow overnight cultures of WΔ3 in liquid YPD+100 mM K+ media, and grow “Kv1.5 m” in liquid YNB+100 mM K+, ura-media.
# 3. Collect the overnight yeast cells and wash them in sterile distilled water. Resuspend WΔ3 cells in the same volume of LS+100 mM K++ uracil media, and resuspend “Kv1.5 m” cells in the same volume of LS+0.5 mM K+, ura-media. These are the seed cultures for the drug assay.
# 4. In Falcon 2059 tubes, prepare various concentrations of drugs in LS+0.5 mM K+, ura-media or LS+100 mM K++ uracil media, and also set up solvent controls for each drug concentrations used. Here is an example:
# Drug X stock solution (10 mM) is dissoved in 0.5% Tween-20. Final concentrations that we test are 1 mM, 0.1 mM, and 0.01 mM.
# Then 250 micro liter of the seed culture of “Kv1.5m” from step 3 is inoculated into each tube.
# 5. Measure the starting OD600 by taking out 0.1 ml of the sample from each tube and diluting […] for measuring. Grow cultures at […] shaker at 300 rpm.
# 6. Get 0.1 ml of samples from each tube and measure their OD600 at 2 hr, 4 hr, 6 hr, 8 hr, and 24 hr.
structure (smiles),measurement,setting,value
"Nc1ccncc1 [Compound 4-AP, 4-aminopyridine]",inhibition at 1000 µM,"1 mM 4-AP, both batches, read-out: reduction at OD600 (inhibition of yeast growth)",50%
same,OD600 (Batch A),LS + 0.5 mM K+ + 0.1 mM 4-AP,2.55
same,OD600 (Batch B),LS + 0.5 mM K+ + 0.1 mM 4-AP,2.5
same,OD600 (Batch A),LS + 0.5 mM K+ + 1 mM 4-AP,1.11
same,OD600 (Batch B),LS + 0.5 mM K+ + 1 mM 4-AP,1.11
same,Block of growth of the trk1 trk2 strain expressing Kv1.5m on low potassium,,can block the Kv1.5m channels
same,Block of growth of the trk1 trk2 strain expressing Kv1.5m on low potassium,listed as 4-aminopyridine,could be blocked
